Values of other authors, collected in patent US7713553B2, “Method of manufacture of a liquid pesticide containing copper and a liquid pesticide containing copper” (Genics Inc., priority 2001, dated 2010).

For [Cu+2].[OH-].[OH-] [copper hydroxide], the solubility in water is given as “almost insoluble”.
